Data taken from patent US20250388605A1, “HETEROBIFUNCTIONAL COMPOUNDS AND METHODS OF TREATING DISEASE” (Halda Therapeutics OpCo, Inc., priority 2022, published 2025).

How the values were obtained:
[1] = tested on: T-Rex 293 cell line SC3 cells having increased expression of androgen receptor protein due to exposure to doxycycline; test: Cellular growth inhibition, T-Rex 293 SC3 cells with doxycycline (increased androgen receptor expression), CellTiter-Glo; type: cell-based; settings: T-Rex 293 SC3 cells with 10 ng/mL doxycycline (increased androgen receptor expression), 72 hours, CellTiter-Glo 2.0
Protocol: (§1) The following types of cells were prepared for this experiment: (i) a T-Rex 293 cell line having increased expression of androgen receptor protein due to exposure to doxycycline and (ii) a T-Rex 293 cell line lacking increased expression of androgen receptor protein. Ability of the test compounds to inhibit proliferation of the foregoing cell types was evaluated according to the procedures set forth below.
(§2) The doxycycline-inducible androgen receptor protein expressing cell line was established using the following protocol: T-Rex 293 cells were purchased from Invitrogen (Cat #R71007) and transfected using Lipofectamine 2000 with the wild-type androgen receptor protein sequence cloned into the pcDNA4/TO vector. Transfected cells were selected using 400 μg/mL Zeocin (Invitrogen Cat #R25001). Following selection, single clones were raised and maintained in Dulbecco's Modified Eagle Medium (DMEM) supplemented with 10% w/w Tetracycline-free fetal bovine serum (FBS) and 250 μg/mL Zeocin. Clones were analyzed for expression of androgen receptor protein in the presence and absence of 10 ng/mL doxycycline (Sigma Cat #D9891), and a single doxycycline-inducible clone (hereinafter “SC3”) was selected for use in downstream assays.
(§3) The SC3 cells were seeded on poly-D-lysine coated, black clear-bottom 384-well plates at 2500/well, in 25 μL Phenol Red Free Dulbecco's Modified Eagle Medium (DMEM) supplemented with 10% w/w charcoal-dextran treated fetal bovine serum (FBS) and 1% w/w pen-strep, with or without 10 ng/mL doxycycline. Pen-Strep is a commercially available mixture of penicillin G and streptomycin, which is used in mammalian cell culture media to prevent bacterial contamination. Phenol Red Free Dulbecco's Modified Eagle Medium (DMEM) supplemented with 10% w/w charcoal-dextran treated fetal bovine serum (FBS) and 1% w/w pen-strep, with or without 10 ng/mL doxycycline is herein referred to as Treatment Medium. Following seeding of cells in the plates, the plates were spun at 300×g for 30 seconds, then equilibrated to room temperature for 30 minutes, and then deposited in a humidified tissue culture incubator maintained at 37° C. with 5% CO2.
(§4) At 24 hours after seeding of the cells, dilutions of test compound were prepared in DMSO and dissolved in Treatment Medium, to achieve a final DMSO concentration of 0.5% w/w, thereby providing the Test Compound Solution. A 25 μL aliquot of the Test Compound Solution was added to cells in the well plates. An equal volume of a solution containing DMSO and Treatment Medium was used as a negative control. Following treatment of cells with Test Compound Solution or said equal volume of a solution containing DMSO and Treatment Medium, the plates were spun at 300×g for 30 seconds, and then left in an incubator for 72 hours.
(§5) At the end of the treatment duration, cell viability was quantified with CellTiter-Glo 2.0 reagent (Promega Cat #G9243). For this purpose, plates were equilibrated to room temperature for 30 minutes, and then 25 μL of CellTiter-Glo 2.0 reagent was added to cells in the plate wells. Plates were then agitated on a shaker for two minutes at 500 rpm and subsequently incubated at room temperature for 10 minutes. Following incubation, the plates were spun at 3000×g for 30 seconds, then sealed with an optical adhesive cover, and luminescence readings were measured with an EnVision Plate Reader.
(§6) Data was normalized using zero luminescence for baseline. A four-parameter non-linear regression curve fit was applied to dose-response data in GraphPad Prism data analysis software to determine the half-maximal growth inhibitory concentration (GI50) for each test compound.

[2] = tested on: T-Rex 293 cell line SC3 cells lacking increased expression of androgen receptor protein; test: Cellular growth inhibition, T-Rex 293 SC3 cells without doxycycline (no increased androgen receptor expression), CellTiter-Glo; type: cell-based; settings: T-Rex 293 SC3 cells not exposed to doxycycline (no increased androgen receptor expression), 72 hours
Protocol: as §1, §2, §3, §4, §5, §6

[3] = tested on: VCaP cells; test: Cellular growth inhibition assay for VCaP cells, CellTiter-Glo; type: cell-based, human; settings: Homo sapiens, 72 hours
Protocol: VCaP cells were purchased from American Type Cell Culture (ATCC Cat #CRL2876) and then seeded on poly-D-lysine coated, black clear-bottom 384-well plates at 5000/well in 25 μL Dulbecco's Modified Eagle Medium (DMEM) supplemented with 10% w/w Fetal bovine serum (FBS) and 1% w/w Pen-Strep. Pen-Strep is a commercially available mixture of penicillin G and streptomycin, which is used in mammalian cell culture media to prevent bacterial contamination. Dulbecco's Modified Eagle Medium (DMEM) supplemented with 10% w/w fetal bovine serum (FBS) and 1% w/w Pen-Strep is herein referred to as Treatment Medium. Following seeding of cells in the plates, the plates were spun at 300×g for 30 seconds, then equilibrated to room temperature for 30 minutes, and then deposited in a humidified tissue culture incubator maintained at 37° C. with 5% CO2.
as §4, §5, §6

Structure (SMILES)	GI50 [3]	GI50 [1]	GI50 [2]
CCS(=O)(=O)Nc1ccc(Oc2cccc(OCCOCCOCCN(C)c3ncc(C(=O)N[C@H]4C(C)(C)[C@H](Oc5ccc(C#N)c(Cl)c5)C4(C)C)cn3)c2)c(-c2cn(C)c(=O)c3[nH]ccc23)c1 [Compound I-2]		< 500 nM	1500 to 3000 nM
CCS(=O)(=O)Nc1ccc(Oc2cccc(OCCOCCOCCOCCOCCOCCOCCN(C)c3ncc(C(=O)N[C@H]4C(C)(C)[C@H](Oc5ccc(C#N)c(Cl)c5)C4(C)C)cn3)c2)c(-c2cn(C)c(=O)c3[nH]ccc23)c1 [Compound I-4]		< 500 nM	< 500 nM
CCS(=O)(=O)Nc1ccc(Oc2cccc(OCCCOCCCOC3CCN(c4ncc(C(=O)N[C@H]5C(C)(C)[C@H](Oc6ccc(C#N)c(Cl)c6)C5(C)C)cn4)CC3)c2)c(-c2cn(C)c(=O)c3[nH]ccc23)c1 [Compound I-12]	< 500 nM	< 500 nM	< 500 nM
CCS(=O)(=O)Nc1ccc(Oc2cccc(OCCCOCCOC3CCN(c4ncc(C(=O)N[C@H]5C(C)(C)[C@H](Oc6ccc(C#N)c(Cl)c6)C5(C)C)cn4)CC3)c2)c(-c2cn(C)c(=O)c3[nH]ccc23)c1 [Compound I-14]	< 500 nM	< 500 nM	500 to 1500 nM
CCS(=O)(=O)Nc1ccc(Oc2cccc(OCCCCOC3CCN(c4ncc(C(=O)N[C@H]5C(C)(C)[C@H](Oc6ccc(C#N)c(Cl)c6)C5(C)C)cn4)CC3)c2)c(-c2cn(C)c(=O)c3[nH]ccc23)c1 [Compound I-15]	< 500 nM	< 500 nM	500 to 1500 nM
CCS(=O)(=O)Nc1ccc(Oc2cccc(OCCOCCCOC3CCN(c4ncc(C(=O)N[C@H]5C(C)(C)[C@H](Oc6ccc(C#N)c(Cl)c6)C5(C)C)cn4)CC3)c2)c(-c2cn(C)c(=O)c3[nH]ccc23)c1 [Compound I-16]	< 500 nM	< 500 nM	< 500 nM
CCS(=O)(=O)Nc1ccc(Oc2cccc(OCCCOC3CCN(c4ncc(C(=O)N[C@H]5C(C)(C)[C@H](Oc6ccc(C#N)c(Cl)c6)C5(C)C)cn4)CC3)c2)c(-c2cn(C)c(=O)c3[nH]ccc23)c1 [Compound I-17]	< 500 nM	< 500 nM	< 500 nM
CCS(=O)(=O)Nc1ccc(Oc2cccc(CCCOC3CCN(c4ncc(C(=O)N[C@H]5C(C)(C)[C@H](Oc6ccc(C#N)c(Cl)c6)C5(C)C)cn4)CC3)c2)c(-c2cn(C)c(=O)c3[nH]ccc23)c1 [Compound I-20]	< 500 nM	< 500 nM	< 500 nM
CCS(=O)(=O)Nc1ccc(Oc2cccc(CCCCCOC3CCN(c4ncc(C(=O)N[C@H]5C(C)(C)[C@H](Oc6ccc(C#N)c(Cl)c6)C5(C)C)cn4)CC3)c2)c(-c2cn(C)c(=O)c3[nH]ccc23)c1 [Compound I-22]	< 500 nM	< 500 nM	< 500 nM

The next lines start with results.

GI50 [3]	Structure (SMILES)	GI50 [1]	GI50 [2]
< 500 nM	CCS(=O)(=O)Nc1ccc(Oc2cccc(OCCC3CCN(c4ncc(C(=O)N[C@H]5C(C)(C)[C@H](Oc6ccc(C#N)c(Cl)c6)C5(C)C)cn4)CC3)c2)c(-c2cn(C)c(=O)c3[nH]ccc23)c1 [Compound I-26]	< 500 nM	< 500 nM
< 500 nM	CCS(=O)(=O)Nc1ccc(Oc2cccc(OCCCCC3CCN(c4ncc(C(=O)N[C@H]5C(C)(C)[C@H](Oc6ccc(C#N)c(Cl)c6)C5(C)C)cn4)CC3)c2)c(-c2cn(C)c(=O)c3[nH]ccc23)c1 [Compound I-28]	< 500 nM	500 to 1500 nM
< 500 nM	CCS(=O)(=O)Nc1ccc(Oc2cccc(OCCN3CCN(CC4CCN(c5ncc(C(=O)N[C@H]6C(C)(C)[C@H](Oc7ccc(C#N)c(Cl)c7)C6(C)C)cn5)CC4)CC3)c2)c(-c2cn(C)c(=O)c3[nH]ccc23)c1 [Compound I-32]	< 500 nM	< 500 nM
< 500 nM	CCS(=O)(=O)Nc1ccc(Oc2cccc(OCCCN3CCN(CC4CCN(c5ncc(C(=O)N[C@H]6C(C)(C)[C@H](Oc7ccc(C#N)c(Cl)c7)C6(C)C)cn5)CC4)CC3)c2)c(-c2cn(C)c(=O)c3[nH]ccc23)c1 [Compound I-33]	< 500 nM	< 500 nM
< 500 nM	CCS(=O)(=O)Nc1ccc(Oc2cccc(OCCCCN3CCN(CC4CCN(c5ncc(C(=O)N[C@H]6C(C)(C)[C@H](Oc7ccc(C#N)c(Cl)c7)C6(C)C)cn5)CC4)CC3)c2)c(-c2cn(C)c(=O)c3[nH]ccc23)c1 [Compound I-34]	< 500 nM	< 500 nM
< 500 nM	CCS(=O)(=O)Nc1ccc(Oc2cccc(OC3CN(CC4CCN(c5ncc(C(=O)N[C@H]6C(C)(C)[C@H](Oc7ccc(C#N)c(Cl)c7)C6(C)C)cn5)CC4)C3)c2)c(-c2cn(C)c(=O)c3[nH]ccc23)c1 [Compound I-38]	< 500 nM	< 500 nM
< 500 nM	CCS(=O)(=O)Nc1cnc(Oc2cccc(OCCOC3CCN(c4cnc(C(=O)N[C@H]5C(C)(C)[C@H](Oc6ccc(C#N)c(Cl)c6)C5(C)C)cn4)CC3)c2)c(-c2cn(C)c(=O)c3[nH]ccc23)c1 [Compound I-46]	< 500 nM	> 3000 nM
< 500 nM	Cn1cc(-c2cc(NS(C)(=O)=O)ccc2Oc2cccc(OCCOC3CCN(c4ncc(C(=O)N[C@H]5C(C)(C)[C@H](Oc6ccc(C#N)c(Cl)c6)C5(C)C)cn4)CC3)c2)c2cc[nH]c2c1=O [Compound I-50, N-((1r, 3r)-3-(3-chloro-4-cyanophenoxy)-2,2,4,4-tetramethylcyclobutyl)-2-(4-(2-(3-(2-(6-methyl-7-oxo-6,7-dihydro-1H-pyrrolo[2,3-c]pyridin-4-yl)-4-(methylsulfonamido)phenoxy)phenoxy)ethoxy)piperidin-1-yl)pyrimidine-5-carboxamide]	< 500 nM	< 500 nM
< 500 nM	Cn1cc(-c2cc(CS(C)(=O)=O)ccc2Oc2cccc(OCCOC3CCN(c4ncc(C(=O)N[C@H]5C(C)(C)[C@H](Oc6ccc(C#N)c(Cl)c6)C5(C)C)cn4)CC3)c2)c2cc[nH]c2c1=O [Compound I-53, N-((1r, 3r)-3-(3-chloro-4-cyanophenoxy)-2,2,4,4-tetramethylcyclobutyl)-2-(4-(2-(3-(2-(6-methyl-7-oxo-6,7-dihydro-1H-pyrrolo[2,3-c]pyridin-4-yl)-4-((methylsulfonyl)methyl)phenoxy)phenoxy)ethoxy)piperidin-1-yl)pyrimidine-5-carboxamide]	< 500 nM	< 500 nM
< 500 nM	CCS(=O)(=O)c1ccc(Oc2cccc(OCCOC3CCN(c4ncc(C(=O)N[C@H]5C(C)(C)[C@H](Oc6ccc(C#N)c(Cl)c6)C5(C)C)cn4)CC3)c2)c(-c2cn(C)c(=O)c3[nH]ccc23)c1 [Compound I-55, N-((1r, 3r)-3-(3-chloro-4-cyanophenoxy)-2,2,4,4-tetramethylcyclobutyl)-2-(4-(2-(3-(4-(ethylsulfonyl)-2-(6-methyl-7-oxo-6,7-dihydro-1H-pyrrolo[2,3-c]pyridin-4-yl)phenoxy)phenoxy)ethoxy)piperidin-1-yl)pyrimidine-5-carboxamide]	< 500 nM	< 500 nM
